Assay results from US20060069132A1, “Azolecarboxamide herbicides” (priority 2004, published 2006).

What was measured:
rice [1] = assay: Test B flooded paddy test; type: in vivo, Oryza sativa; settings: 1000 g ai/ha, scale 0 to 100 (0 no effect, 100 complete control)
Procedure, shortened: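 Read-out: visual comparison with controls, scored 0 to 100, where 100 means complete control and 0 no effect. Formulated chemicals were applied postemergence to plants 2–18 cm tall (1- to 4-leaf), or to flooded-paddy plants at the 2-leaf stage, then held 13 to 15 days under glass.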

Surinam grass = assay: Test B pre-/postemergence herbicide test; type: in vivo, Urochloa decumbens; settings: for Surinam Grass plant response rating: postemergence
Procedure, shortened: (§1)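 Visual rating, 0 (no effect) to 100 (complete control), versus untreated controls after 13–15 d in greenhouse. Pre- and postemergence applications (postemergence plants 2–18 cm, 1–4 leaves); flooded paddy arm at 2-leaf stage. Compounds in non-phytotoxic solvent plus surfactant.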

blackgrass = assay: Test B postemergence herbicide test; type: in vivo, Alopecurus myosuroides; settings: postemergence
Procedure, shortened: (§2)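 Formulated test chemicals went onto postemergence plants measuring 2 to 18 cm, at one to four leaves. For the paddy assay, species had reached two leaves. Scoring took place 13–15 days later by eye, relative to untreated plants, using 0 for no effect up to 100 for full control.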

large crabgrass [2] = assay: Test B pre-/postemergence herbicide test; type: in vivo, Digitaria sanguinalis; settings: for Crabgrass, Large plant response rating: postemergence
Procedure, shortened: as §1

pigweed = assay: Test B pre-/postemergence herbicide test; type: in vivo, Amaranthus retroflexus; settings: for Pigweed plant response rating: postemergence
Procedure, shortened: as §1

[3] = system: small flower umbrella sedge; assay: Test B flooded paddy test; type: in vivo, Cyperus difformis; settings: 1000 g ai/ha, scale 0 to 100 (0 no effect, 100 complete control)
Procedure, shortened: as §2

ducksalad = assay: Test B flooded paddy test; type: in vivo, Heteranthera limosa; settings: 1000 g ai/ha, scale 0 to 100 (0 no effect, 100 complete control)
Procedure, shortened: as §2

velvetleaf [4] = assay: Test B pre-/postemergence herbicide test; type: in vivo, Abutilon theophrasti; settings: for Velvetleaf plant response rating: postemergence
Procedure, shortened: as §1

cocklebur = assay: Test B pre-/postemergence herbicide test; type: in vivo, Xanthium strumarium; settings: for Cocklebur plant response rating: postemergence
Procedure, shortened: (§3)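 Plants compared with untreated controls 13–15 days post-treatment and given a visual 0–100 injury score. Applications: preemergence to seeds; postemergence at 1- to 4-leaf (2–18 cm); paddy species flooded, 2-leaf stage. Vehicle non-phytotoxic, surfactant included.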

barnyardgrass [5] = assay: Test B pre-/postemergence herbicide test; type: in vivo, Echinochloa crus-galli; settings: for Barnyardgrass plant response rating: postemergence
Procedure, shortened: as §3

redroot pigweed = assay: Test A pre-/postemergence herbicide test; type: in vivo, Amaranthus retroflexus
Procedure, shortened: (§4)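 Visual injury rating on a 0–100 scale (0 no effect, 100 complete control) versus untreated controls, about ten days after treatment in greenhouse. Pre: directed soil spray onto seeded sandy loam. Post: spray to runoff on plants 2–10 cm tall at one- to two-leaf stage.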

lambsquarters = assay: Test B pre-/postemergence herbicide test; type: in vivo, Chenopodium album; settings: for Lambsquarters plant response rating: postemergence
Procedure, shortened: as §1

large crabgrass [6] = assay: Test A pre-/postemergence herbicide test; type: in vivo, Digitaria sanguinalis
Procedure, shortened: as §4

velvetleaf [7] = assay: Test A pre-/postemergence herbicide test; type: in vivo, Abutilon theophrasti
Procedure, shortened: as §4

giant foxtail [8] = assay: Test B pre-/postemergence herbicide test; type: in vivo, Setaria faberi; settings: for Foxtail, Giant plant response rating: postemergence
Procedure, shortened: as §1

rice [9] = assay: Test B pre-/postemergence herbicide test; type: in vivo, Oryza sativa; settings: 0 = no effect, 100 = complete control, preemergence
Procedure, shortened: as §1

morningglory [10] = assay: Test B pre-/postemergence herbicide test; type: in vivo, Ipomoea coccinea; settings: for Morningglory plant response rating: postemergence
Procedure, shortened: as §3

wild oat = assay: Test B postemergence herbicide test; type: in vivo, Avena fatua; settings: postemergence
Procedure, shortened: (§5)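 After treating 2-leaf paddy plants or 2–18 cm postemergence plants (1 to 4 leaves) with formulated chemical, researchers kept them in a greenhouse for 13–15 days. Effects were judged visually versus controls: 0 indicates none, 100 total control.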

barnyardgrass [11] = assay: Test B flooded paddy test; type: in vivo, Echinochloa crus-galli; settings: 1000 g ai/ha, scale 0 to 100 (0 no effect, 100 complete control)
Procedure, shortened: as §2

morningglory [12] = assay: Test A pre-/postemergence herbicide test; type: in vivo, Ipomoea spp.
Procedure, shortened: as §4

corn = assay: Test B pre-/postemergence herbicide test; type: in vivo, Zea mays; settings: for Corn plant response rating: postemergence
Procedure, shortened: as §1

giant foxtail [13] = assay: Test A pre-/postemergence herbicide test; type: in vivo, Setaria faberi
Procedure, shortened: as §4

barnyardgrass [14] = assay: Test A pre-/postemergence herbicide test; type: in vivo, Echinochloa crus-galli
Procedure, shortened: as §4

wheat = assay: Test B postemergence herbicide test; type: in vivo, Triticum aestivum; design: key to Wheat plant response rating: 0 = no effect, 100 = complete control; settings: postemergence
Procedure, shortened: as §5

[15] = 125 g ai/ha, 0 = no effect, 100 = complete control, preemergence
[16] = 500 g ai/ha, visual rating, 0 = no effect, 100 = complete control, preemergence
[17] = 125 g ai/ha, visual rating, scale 0 (no effect) to 100 (complete control)
[18] = 500 g ai/ha, scale 0 to 100, 0 is no effect, 100 is complete control
[19] = Postemergence, 500 g ai/ha, 0 to 100 scale, 0 no effect, 100 complete control
[20] = Postemergence, 2000 g ai/ha, 0 to 100 scale, 0 no effect, 100 complete control
[21] = Preemergence, 2000 g ai/ha, visual rating, 0 to 100 scale (0 no effect, 100 complete control)
[22] = preemergence, 500 g ai/ha, visual injury, 0 to 100 scale (0 no effect, 100 complete control)

CCn1nc(C(C)(C)C)cc1C(=O)Nc1nc(C(=O)N(C)C)ccc1F [Compound 277]
Rice plant response rating (rice [1]): 0
Surinam Grass plant response rating (0 to 100 scale) (Surinam grass; [15]): 0
Plant response rating, Surinam Grass (Surinam grass; [16]): 0
Surinam Grass plant response rating (Surinam grass; [17]): 0
Surinam Grass plant response rating (Surinam grass; [18]): 0
Blackgrass plant response rating (blackgrass; [17]): 10
Blackgrass plant response rating (blackgrass; [18]): 20
Crabgrass, Large plant response rating (0 to 100 scale) (large crabgrass [2]; [15]): 0
Plant response rating, Crabgrass, Large (large crabgrass [2]; [16]): 0
Crabgrass, Large plant response rating (large crabgrass [2]; [17]): 0
Crabgrass, Large plant response rating (large crabgrass [2]; [18]): 0
Pigweed plant response rating (0 to 100 scale) (pigweed; [15]): 60
Plant response rating, Pigweed (pigweed; [16]): 100
Pigweed plant response rating (pigweed; [17]): 0
Pigweed plant response rating (pigweed; [18]): 10
Sedge, Umbrella plant response rating [3]: 0
Ducksalad plant response rating (ducksalad): 0
Velvetleaf plant response rating (0 to 100 scale) (velvetleaf [4]; [15]): 0
Plant response rating, Velvetleaf (velvetleaf [4]; [16]): 40
Velvetleaf plant response rating (velvetleaf [4]; [17]): 20
Velvetleaf plant response rating (velvetleaf [4]; [18]): 20
Cocklebur plant response rating (0 to 100 scale) (cocklebur; [15]): 0
Plant response rating, Cocklebur (cocklebur; [16]): 10
Cocklebur plant response rating (cocklebur; [17]): 0
Cocklebur plant response rating (cocklebur; [18]): 0
Barnyardgrass plant response rating (0 to 100 scale) (barnyardgrass [5]; [15]): 0
Plant response rating, Barnyardgrass (barnyardgrass [5]; [16]): 0
Barnyardgrass plant response rating (barnyardgrass [5]; [17]): 0
Barnyardgrass plant response rating (barnyardgrass [5]; [18]): 0
Pigweed plant response rating (redroot pigweed; [19]): 10
Plant response rating, Pigweed (redroot pigweed; [20]): 35
Pigweed plant response rating (redroot pigweed; [21]): 70
Pigweed plant response rating (redroot pigweed; [22]): 40
Lambsquarters plant response rating (0 to 100 scale) (lambsquarters; [15]): 40
Plant response rating, Lambsquarters (lambsquarters; [16]): 80
Lambsquarters plant response rating (lambsquarters; [17]): 20
Lambsquarters plant response rating (lambsquarters; [18]): 30
Crabgrass, Large plant response rating (large crabgrass [6]; [19]): 0
Plant response rating, Crabgrass, Large (large crabgrass [6]; [20]): 0
Crabgrass, Large plant response rating (large crabgrass [6]; [21]): 25
Crabgrass, Large plant response rating (large crabgrass [6]; [22]): 0
Velvetleaf plant response rating (velvetleaf [7]; [19]): 25
Plant response rating, Velvetleaf (velvetleaf [7]; [20]): 30
Velvetleaf plant response rating (velvetleaf [7]; [21]): 45
Velvetleaf plant response rating (velvetleaf [7]; [22]): 5
Foxtail, Giant plant response rating (0 to 100 scale) (giant foxtail [8]; [15]): 0
Plant response rating, Foxtail, Giant (giant foxtail [8]; [16]): 0
Foxtail, Giant plant response rating (giant foxtail [8]; [17]): 0
Foxtail, Giant plant response rating (giant foxtail [8]; [18]): 0
Rice plant response rating (0 to 100 scale) (rice [9]; 125 g ai/ha): 0
Plant response rating, Rice (rice [9]; 500 g ai/ha, visual rating): 20
Morningglory plant response rating (0 to 100 scale) (morningglory [10]; [15]): 0
Plant response rating, Morningglory (morningglory [10]; [16]): 0
Morningglory plant response rating (morningglory [10]; [17]): 0
Morningglory plant response rating (morningglory [10]; [18]): 20
Oat, Wild plant response rating (wild oat; [17]): 10
Oat, Wild plant response rating (wild oat; [18]): 20
Barnyardgrass plant response rating (barnyardgrass [11]): 0
Morningglory plant response rating (morningglory [12]; [19]): 0
Plant response rating, Morningglory (morningglory [12]; [20]): 0
Morningglory plant response rating (morningglory [12]; [21]): 0
Morningglory plant response rating (morningglory [12]; [22]): 0
Corn plant response rating (0 to 100 scale) (corn; [15]): 0
Plant response rating, Corn (corn; [16]): 0
Corn plant response rating (corn; [17]): 0
Corn plant response rating (corn; [18]): 10
Foxtail, Giant plant response rating (giant foxtail [13]; [19]): 0
Plant response rating, Foxtail, Giant (giant foxtail [13]; [20]): 0
Foxtail, Giant plant response rating (giant foxtail [13]; [21]): 55
Foxtail, Giant plant response rating (giant foxtail [13]; [22]): 0
Barnyardgrass plant response rating (barnyardgrass [14]; [19]): 0
Plant response rating, Barnyardgrass (barnyardgrass [14]; [20]): 50
Barnyardgrass plant response rating (barnyardgrass [14]; [21]): 70
Barnyardgrass plant response rating (barnyardgrass [14]; [22]): 0
Wheat plant response rating (wheat; [17]): 20
Wheat plant response rating (wheat; [18]): 20
